Consider one compound from patent publication US7803844B2, “Composition for preventing and/or treating bone disease, physiologically functional or health food containing thereof, and pharmaceutical containing thereof as active ingredients” (Erina Co. Inc., priority 2004, dated 2010).

The test system of assay [1] is MφRAW264 cells. Nature of the assay: Actin ring formation assay I. The class given is cell-based. To be noted: 20 μM, 1 day after actin ring formation, MφRAW264 with ODF/RANKL and PD98059. Here is the method: After that, 0.1 mL of the medium including 100 ng/mL of ODF/RANKL and 20 μM PD98059 was added, and further incubated under the same condition (final concentration of RANKL was 50 ng/mL, and that of PD98059 10 μM). In order to promote the differentiation to the activated osteoclast, two days after the addition of ODF/RANKL and PD98059, the medium was exchanged to that including 50 ng/mL of ODF/RANKL as described above; then the plate was incubated until the actin ring, the activated structure of osteoclast, formation was confirmed. After actin ring was formed, honokiol prepared as the same as that prepared in the example 1 was added, and cultured further one day. […] One day after when honokiol was added to culture, TRAP staining of the tartrate resistant acid phosphatase (TRAP) in each well, similarly o those performed.

The next assay concerns acid phosphatase. To be noted: cited from earlier work.
The subject of assay [2] is M-CSF dependent cells derived from mice bone marrow cells (BMM). Briefly: Inhibition assay II of the early stage differentiation of osteoclast (TRAP activity). The class given is cell-based, mouse. To be noted: mouse bone marrow M-CSF dependent cells, 50 ng/mL RANKL.
Description: Mouse bone marrow cells were obtained from femurs and shanks of male ddy mice from 6 to 9 week age (Chubu Kagaku Shizai Co. Ltd.)
From 6 to 9 week ages of ddy mice, the femurs and shanks were excised. The bone row cells were extruded from these bones by using a syringe with 22 G×1 and ¼ gauge needle to obtain.
Obtained bone marrow cells were suspended in 10% FBS-MEM supplemented with 100 μg/mL of sodium streptomycin, 100 U/mL of sodium penicillin G, 50 ng/mL of M-CSF, and 1 ng/mL of TGF-β, and then inoculated to each well of the 96-well microplate at the cell concentration of 1×10^6 cells/0.1 mL/well. Then, the plates were incubated under the presence of 5% CO2, at 37° C.
After 3 days incubation, the culture medium was exchanged to that including 50 ng/mL of M-CSF and 50 ng/mL of osteoclast differentiation factor (DF/RANKL), simultaneously honokiol prepared as the same concentration as used in the example 1 was added. The medium of the control group was exchanged that including M-CSF and ODF/RANKL, but no honokiol. The plates were further incubated under the condition of the presence of 5% CO2, at 37° C.
After 1.5 days from the medium exchange, tartrate resistant acid phosphatase activity, the early stage differentiation marker, was measured. Medium in each well was discarded and washed plate with PBS, the cells in the well was fixed for 15 minutes by using 10% HCHO/PBS. Furthermore, the cells were fixed by using ethanol-acetone (1:1) mixture. After fixation, the fixed mixture was discarded and dried at room temperature. After drying, tartrate resistant acid phosphatase (TRAP) of the cells in each well was measured and stained similarly to those in the example 1.
The inhibition assay of the early stage differentiation of osteoclast was carried out similarly to the described above, except honokiol used in the above mentioned (3-2) was substituted to magnolol, and its concentration was from 20 to 60 μM.
Another assay relates to MC3T3-E1 cells. Briefly: Osteoblast differentiation induction assay, ALP activity. Type of assay: cell-based, mice. The note with it: 3 to 30 μM, 7 days. Here is the method:
As an evaluation method for the effect against the differentiation of osteoblast, MC3T3-E1 cell osteoblast differentiation induction assay was used. In the assay, the activity of alkaline phosphatase (ALP), the early stage differentiation marker enzyme of osteoblast, was determined, and the staining utilizing the activity (ALP staining) was performed. Expression level of osteocalcin, which is the marker of the differentiated osteoblast, was determined by using the EIA kit described above. Furthermore, in order to know the cytotoxicity, the cell viability was determined by using MTT assay. MC3T3-E1 cells were plated into the wells of the 96-well microplate at the concentration of 4×10^3 cells/well, and incubated two days under the presence of 5% of CO2, at 37° C. until cells became confluent in the well. […] The medium was exchanged every 3 or 4 days. ALP activity was determined as follows. At first, MC3T3-E1 cells were cultured for 7 days under the same condition as described above; then the medium was removed, and washed by using PBS. After that cells were fixed by using methanol and the dish was dried. […] The reaction was terminated by adding 100 μL of 0.1 N NaOH, and released p-nitrophenol was determined by measuring absorbance at the wave length of 405 nm, by using the plate reader for obtaining ALP activity. […]

The test system of assay [3] is MφRAW264 cells. Nature of the assay: Inhibition assay I of the early phase differentiation of osteoclast (TRAP activity). The class given is cell-based. The note with it: 3 days. From the text:
Macrophage RAW264 cell line (RIKEN. cell No. CB0535, herein below, referred to as “MφRAW264”), which may differentiate to osteoclast-like cells, was used in the inhibition assay of the early phase differentiation of osteoclast. α-MEM (Invitrogen Co., Cat. No. 11900-024) including 10% of fetal bovine serum (Asahi Technoglass Co., (IWAKI), Cat. No. IWK-500) was used for cultivating MφRAW264. Osteoclast differentiation factor (ODF/RANKL) was purchased from Pepro Tech Inc., Cat. No. 310-01. Inhibition assay I of the early phase differentiation of osteoclast was performed for evaluating the inhibition level of the bone resorption in vitro, the differentiation assay of osteoclast from MφRAW264 cells in early stage. Results of the osteoclast assay were evaluated by determining tartrate resistant acid phosphatase (TRAP) activity, an early stage differentiation marker, and TRAP staining. By using these two indices, activities of flavones from MφRAW264 cells to osteoclast are quantitatively evaluated. MφRAW264 cells were suspended in a α-MEM supplemented 10% of fetal bovine serum (FBS), which is referred to as “10% FBS-MEM herein below”, and plated at 1×10^5 cells/10 mL in 100 mm φ dishes. Then, the dishes were incubated under the presence of 5% of CO2, at 37° C. for 3 days. After confirmed that the plated cells in the dishes became confluent, the incubation was finished. Subsequently, when the cells became confluent, they were treated by using 0.05% of trypsin and Hank's balanced salt solution containing 0.53 mM of EDTA (0.05% Trypsin-0.53 mM EDTA/HBSS (Invitrogen Co., Cat. No. 25300-054) to scrape them, and then suspended in 10% FBS-MEM to plate 0.4×10^4 cells/0.1 mL per each well of 96-well microplates. Then, the plates were incubated one day under the same condition as described above. Osteoclast differentiation factor (ODF/RANKL) was dissolved in 10% FBS-MEM to prepare 100 ng/mL of solution. Alternatively, a stock solution of honokiol was prepared at the concentration of 10 mM in methanol, and stored at −20° C. […] Equal volume of methanol was solely added into the control wells. Honokiol used in the following experiments were the solutions having each concentration prepared as described above. […] Equal volume of methanol without honokiol was added into the control wells. […] Incubation medium in each well of the 96-well microplate was discarded. […] After drying, tartrate resistant acid phosphatase activity was determined (hereinafter, it is referred to as “TRAP assay”), and staining of cells in the well was performed. […] Thirty minutes later, the reaction was terminated by adding 0.1 mL of 0.1 M NaOH, and released p-nitrophenol was determined by the spectrophotometer (Dainippon Pharmaceutical Co. Ltd.) at wave length 405 nm. […]

As for `C=CCc1ccc(O)c(-c2ccc(O)c(CC=C)c2)c1` [honokiol], in the assay on MφRAW264 cells [1], the “actin rings (activated structure of osteoclast)” value is given as “destructed”. Further, the “inhibition activity of acid phosphatase” value in the assay on acid phosphatase is “has the inhibition activity of the acid phosphatase”. Further, the IC50 (in general, the midpoint of a concentration-inhibition curve) in assay [2] (Bone marrow cell, read-out: IC50, inhibition of differentiation from M-CSF dependent bone marrow cells to osteoclast induced by RANKL) worked out at 10 µM; in the assay on MφRAW264 cells [3] (Osteoclast, 72 h, MφRAW264 cells, RANKL 50 ng/mL, read-out: IC50, inhibition of MφRAW264 cells to osteoclast by RANKL), 15 µM. Besides, the “TRAP activity (control %)” value in assay [2] (1.5 days, honokiol 3-30 μM, magnolol 20-60 μM) is recorded as “inhibited, depending on the dose”; with MφRAW264 cells [3] (MφRAW264 cells stimulated by 50 ng/mL ODF/RANKL, honokiol 3-30 μM, magnolol 20-60 μM) it was “dose-dependently inhibited”. In addition, the ALP activity result with MC3T3-E1 cells is recorded as “enhanced in dose dependent manner”.
